From patent US6500613B1, “Pneumococcal surface proteins and uses thereof” (priority 1995, dated 2002)
Where two headings read alike, the source gives them in different places.

What was measured:
[1] = tested on: pspA; assay: Amplification of pspA by PCR with oligonucleotides as 5' primers and 3' primer LSM2 (Example 11); set-up: species or system Streptococcus pneumoniae; details: 5′ primer in combination with 3′-primer LSM2, 14 strains
Protocol: These oligonucleotides were synthesized by Oligos, Etc.
PCR was done with an MJ Research, Inc., Programmable Thermal Cycler (Watertown, Mass.), using approximately 10 ng of genomic pneumococcal DNA as template with designated 5′ and 3′ primer pairs. The sample was brought to a total volume of 50 μl containing a final concentration of 50 mM KCl, 10 mM Tris-HCl (pH 8.3), 1.5 mM MgCl2, 0.01% gelatin, 0.5 μM of each primer, 200 μM of each deoxynucleoside triphosphate, and 2.5 U of Taq DNA polymerase. The samples were denatured at 94° C. for 2 minutes and subjected to 10 cycles consisting of: 1 min at 94° C., 2 min at 50° C., and 3 min at 72° C., followed by 20 cycles of: 1 min at 94° C., 2 min at 60° C., and 3 min at 72° C. After 30 total cycles, the samples were held at 72° C. for an additional 5 min prior to cooling to 4° C. The amplicons were then analyzed by agarose gel electrophoresis.

[2] = tested on: S. pneumoniae isolates MC25, MC26, MC27, MC28; assay type: cell-based, Streptococcus pneumoniae

| Substance | Amplified/Tested [1] | Percent Amplified [1] | Penicillin MIC ([2]; isolate MC25) | Penicillin MIC ([2]; isolate MC26) | Penicillin MIC ([2]; isolate MC27) | Penicillin MIC ([2]; isolate MC28) |
| --- | --- | --- | --- | --- | --- | --- |
| LSM111 (DNA CCGGATCCAGCTCCTGCACCAAAAC; chemistry not given here) | 14/14 | 100% | – | – | – | – |
| Penicillin | – | – | 1 µg/mL | 4 µg/mL | 1 µg/mL | 2 µg/mL |
